Measured values taken from DBAASP.
Values after ≈ are worked out from the molar mass of the structure shown.

Assays:
Assay in all cases: ≥ marks a high value that may be exact or a test limit, other limits are often not marked, values filed in µg/mL are converted to µM
[1] = tested on: Kocuria rhizophila DSM 348
[2] = tested on: Franconibacter helveticus DSM 18396
[3] = tested on: Escherichia coli DH5alpha
[4] = tested on: Bacillus subtilis DSM 347
[5] = tested on: Escherichia coli
[6] = tested on: Vibrio harveyi
[7] = tested on: Staphylococcus aureus
[8] = tested on: Aeromonas hydrophila
[9] = tested on: Bacillus subtilis
[10] = tested on: Vibrio parahaemolyticus
[11] = tested on: Staphylococcus aureus AS1.72
[12] = tested on: Enterococcus faecalis CGMCC 1.595
[13] = tested on: Klebsiella pneumoniae subsp. pneumoniae CGMCC 1.176
[14] = tested on: Proteus mirabilis CICC 22931
[15] = tested on: Enterobacter cloacae CGMCC 1.58
[16] = tested on: Bacillus cereus AS1.126
[17] = tested on: Staphylococcus epidermidis CICC 23664
[18] = tested on: Enterococcus faecium CGMCC 1.2334
[19] = tested on: Pseudomonas aeruginosa CGMCC 1.860
[20] = tested on: Escherichia coli AS1.349
[21] = tested on: Salmonella enterica subsp. enterica serovar Pullorum C79-13
[22] = tested on: Staphylococcus epidermidis ATCC 12228
[23] = tested on: Salmonella enterica subsp. enterica serovar Typhimurium ATCC 14028
[24] = tested on: Escherichia coli ATCC 25922
[25] = tested on: Enterococcus faecalis ATCC 29212
[26] = tested on: Escherichia coli UB1005
[27] = tested on: Bacillus subtilis CMCC 63501
[28] = tested on: Staphylococcus aureus ATCC 29213
[29] = tested on: Klebsiella aerogenes CGMCC 1.876
[30] = tested on: Lactococcus lactis AS1.1690
[31] = tested on: Acinetobacter baumannii CICC 22934

CC[C@H](C)[C@H](NC(=O)CN)C(=O)NCC(=O)N[C@@H](CCCCN)C(=O)N[C@@H](Cc1ccccc1)C(=O)N[C@@H](CC(C)C)C(=O)N[C@@H](Cc1cnc[nH]1)C(=O)N[C@@H](CO)C(=O)N[C@@H](C)C(=O)N[C@@H](CCCCN)C(=O)N[C@@H](CCCCN)C(=O)N[C@@H](C)C(=O)NCC(=O)N[C@@H](CCCCN)C(=O)N[C@@H](C)C(=O)N[C@@H](Cc1ccccc1)C(=O)N[C@H](C(=O)NCC(=O)N[C@@H](CCC(=O)O)C(=O)N[C@H](C(=O)N[C@@H](CCSC)C(=O)N[C@@H](CC(N)=O)C(=O)N[C@@H](CO)C(=O)O)[C@@H](C)CC)C(C)C [GIGKFLHSAKKAGKAFVGEIMNS]
MIC [1]: ≥ 64 µM
MIC [2]: ≥ 64 µM
MIC [3]: ≥ 64 µM
MIC [4]: 8 µM (≈ 19.1 µg/mL)

CC[C@H](C)[C@H](NC(=O)CN)C(=O)NCC(=O)N[C@@H](CCCCN)C(=O)N[C@@H](Cc1ccccc1)C(=O)N[C@@H](CC(C)C)C(=O)N[C@@H](Cc1cnc[nH]1)C(=O)N[C@@H](CO)C(=O)N[C@@H](C)C(=O)N[C@@H](CCCCN)C(=O)N[C@@H](CCCCN)C(=O)N[C@@H](Cc1ccccc1)C(=O)NCC(=O)N[C@@H](CCCCN)C(=O)N[C@@H](C)C(=O)N[C@@H](Cc1ccccc1)C(=O)N[C@H](C(=O)N[C@@H](C)C(=O)N[C@@H](CCC(=O)O)C(=O)N[C@H](C(=O)N[C@@H](CCSC)C(=O)N[C@@H](CC(N)=O)C(=O)N[C@@H](CO)C(=O)O)[C@@H](C)CC)C(C)C [GIGKFLHSAKKFGKAFVAEIMNS]
MIC [1]: 8 µM (≈ 19.8 µg/mL)
MIC [2]: 8 µM (≈ 19.8 µg/mL)
MIC [3]: 16 µM (≈ 39.7 µg/mL)
MIC [4]: 1 µM (≈ 2.48 µg/mL)

CC[C@H](C)[C@H](NC(=O)[C@H](CC(C)C)NC(=O)[C@H](CCC(=O)O)NC(=O)CNC(=O)[C@H](CC(C)C)NC(=O)[C@H](Cc1cnc[nH]1)NC(=O)CNC(=O)[C@H](CCCCN)NC(=O)[C@@H](NC(=O)[C@H](Cc1ccccc1)NC(=O)[C@H](CCCCN)NC(=O)[C@H](CCCCN)NC(=O)[C@H](CS)NC(=O)[C@H](CC(C)C)NC(=O)[C@H](CO)NC(=O)[C@H](CCCCN)NC(=O)[C@H](CC(C)C)NC(=O)[C@H](CC(C)C)NC(=O)CN)C(C)C)C(=O)N[C@@H](CCC(=O)O)C(=O)N[C@@H](CCC(=O)O)C(=O)N[C@@H](CC(C)C)C(=O)N[C@H](C(=O)N[C@H](C(=O)N[C@@H](CO)C(=O)N[C@@H](CC(=O)O)C(=O)N[C@@H](CC(=O)O)C(=O)O)[C@@H](C)O)[C@@H](C)O [GLLKSLCKKFVKGHLGELIEELTTSDD]
MIC [5]: 17 µM (≈ 50.5 µg/mL)
MIC [6]: 17 µM (≈ 50.5 µg/mL)
MIC [7]: 17 µM (≈ 50.5 µg/mL)
MIC [8]: ≥ 96 µM
MIC [9]: ≥ 33.9 µM
MIC [10]: ≥ 96 µM

CC[C@H](C)[C@H](N)C(=O)N[C@@H](CCCCN)C(=O)N[C@@H](CCCCN)C(=O)N[C@H](C(=O)N[C@@H](Cc1c[nH]c2ccccc12)C(=O)N[C@@H](CO)C(=O)N[C@@H](CCCCN)C(=O)N[C@H](C(=O)N[C@@H](CCCCN)C(=O)N[C@@H](CCCCN)C(=O)N[C@@H](Cc1c[nH]c2ccccc12)C(=O)N[C@@H](CC(C)C)C(=O)N[C@@H](CCCCN)C(=O)O)[C@@H](C)CC)[C@@H](C)CC [IKKIWSKIKKWLK]
MIC [11]: 2.5 µM (≈ 4.25 µg/mL)
MIC [12]: 2.5 µM (≈ 4.25 µg/mL)
MIC [13]: ≥ 100 µM
MIC [14]: ≥ 100 µM
MIC [15]: ≥ 100 µM
MIC [16]: 18.8 µM (≈ 31.9 µg/mL)
MIC [17]: 2.5 µM (≈ 4.25 µg/mL)
MIC [18]: 5 µM (≈ 8.5 µg/mL)
MIC [19]: 15.6 µM (≈ 26.5 µg/mL)
MIC [20]: 2.5 µM (≈ 4.25 µg/mL)

CC[C@H](C)[C@H](NC(=O)[C@H](C)NC(=O)[C@H](CC(C)C)NC(=O)[C@@H]1CCCN1C(=O)[C@@H](NC(=O)[C@H](CC(C)C)NC(=O)[C@H](CCC(N)=O)NC(=O)[C@H](Cc1c[nH]c2ccccc12)NC(=O)[C@H](Cc1ccccc1)NC(=O)[C@H](CCCN=C(N)N)NC(=O)[C@@H](N)CCCCN)C(C)C)C(=O)N[C@@H](CCCCN)C(=O)N[C@H](C(=O)N[C@@H](Cc1ccc(O)cc1)C(=O)N[C@@H](CCCN=C(N)N)C(=O)N[C@@H](C)C(=O)N[C@@H](Cc1c[nH]c2ccccc12)C(=O)N[C@@H](CCCCN)C(=O)N[C@@H](CCCN=C(N)N)C(=O)N[C@@H](CCCN=C(N)N)C(=O)O)[C@@H](C)CC [KRFWQLVPLAIKIYRAWKRR]
MIC [21]: 8 µM (≈ 21 µg/mL)
MIC [22]: 4 µM (≈ 10.5 µg/mL)
MIC [23]: 4 µM (≈ 10.5 µg/mL)
MIC [24]: 2 µM (≈ 5.26 µg/mL)
MIC [25]: 4 µM (≈ 10.5 µg/mL)
MIC [26]: 2 µM (≈ 5.26 µg/mL)
MIC [27]: 8 µM (≈ 21 µg/mL)
MIC [28]: 4 µM (≈ 10.5 µg/mL)

CC(C)[C@H](NC(=O)[C@H](CCCCN)NC(=O)[C@@H](N)CO)C(=O)N[C@@H](Cc1c[nH]c2ccccc12)C(=O)N[C@@H](CCCN=C(N)N)C(=O)N[C@@H](Cc1cnc[nH]1)C(=O)N[C@@H](Cc1c[nH]c2ccccc12)C(=O)N[C@@H](CCCN=C(N)N)C(=O)N[C@@H](CCCN=C(N)N)C(=O)N[C@@H](Cc1ccccc1)C(=O)N[C@@H](Cc1c[nH]c2ccccc12)C(=O)N[C@@H](Cc1cnc[nH]1)C(=O)N[C@@H](CCCN=C(N)N)C(=O)N[C@@H](C)C(=O)N[C@@H](Cc1cnc[nH]1)C(=O)N[C@@H](CCCN=C(N)N)C(=O)N[C@@H](CCCCN)C(=O)N[C@@H](CCCCN)C(=O)O [SKVWRHWRRFWHRAHRKK]
MIC [11]: 3.86 µM (≈ 9.87 µg/mL)
MIC [12]: 1.81 µM (≈ 4.63 µg/mL)
MIC [13]: ≥ 100 µM
MIC [29]: ≥ 100 µM
MIC [30]: 1.98 µM (≈ 5.06 µg/mL)
MIC [15]: ≥ 100 µM
MIC [16]: 3.91 µM (≈ 10 µg/mL)
MIC [17]: 7 µM (≈ 17.9 µg/mL)
MIC [31]: 7.81 µM (≈ 20 µg/mL)
MIC [18]: 2.9 µM (≈ 7.42 µg/mL)
MIC [19]: 1.59 µM (≈ 4.07 µg/mL)
MIC [20]: 6.25 µM (≈ 16 µg/mL)

CC[C@H](C)[C@H](NC(=O)[C@H](CCC(=O)O)NC(=O)[C@H](CC(N)=O)NC(=O)[C@H](CS)NC(=O)[C@@H](N)C(C)C)C(=O)NCC(=O)N[C@@H](CC(C)C)C(=O)N[C@@H](CC(C)C)C(=O)N[C@@H](CCCCN)C(=O)N[C@@H](CO)C(=O)N[C@@H](CC(C)C)C(=O)N[C@@H](CS)C(=O)N[C@@H](CCCCN)C(=O)N[C@@H](CCCCN)C(=O)N[C@@H](Cc1ccccc1)C(=O)N[C@H](C(=O)N[C@@H](CCCCN)C(=O)NCC(=O)N[C@@H](Cc1cnc[nH]1)C(=O)N[C@@H](CC(C)C)C(=O)NCC(=O)N[C@@H](CCC(=O)O)C(=O)O)C(C)C [VCNEIGLLKSLCKKFVKGHLGE]
MIC [5]: 33.9 µM (≈ 82 µg/mL)
MIC [6]: ≥ 96 µM
MIC [7]: 17 µM (≈ 41 µg/mL)
MIC [8]: ≥ 96 µM
MIC [9]: ≥ 96 µM
MIC [10]: ≥ 96 µM
